Consider 1 compound from ChEMBL document CHEMBL5346907, “Discovery of a novel oral type Ⅰ CDK8 inhibitor against acute myeloid leukemia” (Eur J Med Chem, 2023).

Active and inactive are the calls of the source. The rule behind the calls is not given here.

The target of series [1] is Cyclin-dependent kinase 2/cyclin E1 (Homo sapiens, UniProt P24941). The series can be described thus: Inhibition of CDK2/Cyclin E1 (unknown origin) preincubated for 10 mins followed by substrate addition measured for 60 to 120 mins by HTRF assay. The series is classed as protein-complex assay. In general terms: In TR-FRET formats the signal depends on donor and acceptor labels being close together.

Series [2] has as its target T1, Cyclin-dependent kinase 8 (Homo sapiens, UniProt P49336). The series can be described thus: Binding affinity to CDK8 in human HCT-116 cells assessed as increase in degradation temperature of protein at 5 uM incubated for 6 hrs followed by heating for 4 mins by CETSA assay (reference value: 55 degreeC). Conditions: time 6.06 hrs. The format is cell-based.
In series [3] the target is Non-receptor tyrosine-protein kinase TYK2 (Homo sapiens) (UniProt P29597). Kind of series: Inhibition of TYK2 (unknown origin) at 1 uM preincubated for 10 mins followed by substrate addition measured for 60 to 120 mins by HTRF assay relative to control. Conditions: time 70-130 min.
Sequence of Non-receptor tyrosine-protein kinase TYK2 (Homo sapiens) (P29597 whole entry): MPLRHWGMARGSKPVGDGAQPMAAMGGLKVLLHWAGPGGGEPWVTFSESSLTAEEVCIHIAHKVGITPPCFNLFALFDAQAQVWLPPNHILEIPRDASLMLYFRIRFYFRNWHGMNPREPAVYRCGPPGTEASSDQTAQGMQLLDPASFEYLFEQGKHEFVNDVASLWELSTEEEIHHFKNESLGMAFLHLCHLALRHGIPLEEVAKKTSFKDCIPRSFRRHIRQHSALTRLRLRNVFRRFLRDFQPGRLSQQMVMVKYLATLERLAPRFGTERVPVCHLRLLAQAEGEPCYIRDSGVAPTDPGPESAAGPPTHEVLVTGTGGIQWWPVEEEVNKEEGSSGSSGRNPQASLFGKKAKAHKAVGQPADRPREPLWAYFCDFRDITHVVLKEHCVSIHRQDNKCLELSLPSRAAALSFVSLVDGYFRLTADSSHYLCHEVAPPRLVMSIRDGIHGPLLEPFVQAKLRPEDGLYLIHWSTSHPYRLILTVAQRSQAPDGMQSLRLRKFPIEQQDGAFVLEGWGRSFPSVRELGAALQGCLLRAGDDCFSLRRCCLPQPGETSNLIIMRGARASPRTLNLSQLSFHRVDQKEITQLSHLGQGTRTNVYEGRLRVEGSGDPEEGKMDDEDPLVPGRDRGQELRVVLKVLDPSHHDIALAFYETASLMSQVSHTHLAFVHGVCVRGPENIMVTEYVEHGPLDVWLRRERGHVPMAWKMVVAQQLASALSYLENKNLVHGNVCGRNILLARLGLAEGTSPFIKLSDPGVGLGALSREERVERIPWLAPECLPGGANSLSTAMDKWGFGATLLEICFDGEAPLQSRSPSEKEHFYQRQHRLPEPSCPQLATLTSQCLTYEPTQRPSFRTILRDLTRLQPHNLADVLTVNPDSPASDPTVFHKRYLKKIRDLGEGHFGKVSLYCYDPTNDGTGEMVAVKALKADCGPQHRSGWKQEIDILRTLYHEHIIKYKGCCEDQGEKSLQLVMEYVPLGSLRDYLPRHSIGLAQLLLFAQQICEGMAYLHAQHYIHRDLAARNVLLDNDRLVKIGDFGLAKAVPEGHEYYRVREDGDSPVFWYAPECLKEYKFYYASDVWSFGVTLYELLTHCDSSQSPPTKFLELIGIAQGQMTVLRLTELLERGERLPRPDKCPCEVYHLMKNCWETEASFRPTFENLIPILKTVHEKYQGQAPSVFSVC
In series [4] the target is T1, Cyclin-dependent kinase 8. Kind of series: Binding affinity to CDK8 in human HCT-116 cells upto 4 uM incubated for 12 hrs by biotin pull down based Western blot analysis. The format is cell-based. For orientation: A western blot detects proteins with antibodies after separation by electrophoresis.
The target in series [5] is Tyrosine-protein kinase Fyn (Homo sapiens) (UniProt P06241). Kind of series: Inhibition of FYN b (unknown origin) at 1 uM preincubated for 10 mins followed by substrate addition measured for 60 to 120 mins by HTRF assay relative to control. Conditions: time 70-130 min.
For series [6], the target named is Insulin receptor-related protein (Homo sapiens) (UniProt P14616). The series can be described thus: Inhibition of IRR (unknown origin) at 1 uM preincubated for 10 mins followed by substrate addition measured for 60 to 120 mins by HTRF assay relative to control. Particulars: time 70-130 min.
The nature of series [7]: Acute toxicity in C57BL/6 mouse assessed as histopathological change in heart at 2000 mg/kg, IG measured for 14 days by H&E staining based analysis. The series is classed as organism-based. Particulars: in vivo, po, 336 h, time 14 day.
Series [8] addresses Activated CDC42 kinase 1 (Homo sapiens) (UniProt Q07912). Kind of series: Inhibition of ACK (unknown origin) at 1 uM preincubated for 10 mins followed by substrate addition measured for 60 to 120 mins by HTRF assay relative to control. Particulars: time 70-130 min.
Series [9] deals with Cyclin-dependent kinase 5/CDK5 activator 1 (Homo sapiens) (UniProt Q00535+Q15078). Kind of series: Inhibition of CDK5/p35NCK (unknown origin) at 1 uM preincubated for 10 mins followed by substrate addition measured for 60 to 120 mins by HTRF assay relative to control. Particulars: time 70-130 min. The series is classed as protein-complex assay.
Sequence of Cyclin-dependent kinase 5/CDK5 activator 1 (Homo sapiens) (Q00535 whole entry): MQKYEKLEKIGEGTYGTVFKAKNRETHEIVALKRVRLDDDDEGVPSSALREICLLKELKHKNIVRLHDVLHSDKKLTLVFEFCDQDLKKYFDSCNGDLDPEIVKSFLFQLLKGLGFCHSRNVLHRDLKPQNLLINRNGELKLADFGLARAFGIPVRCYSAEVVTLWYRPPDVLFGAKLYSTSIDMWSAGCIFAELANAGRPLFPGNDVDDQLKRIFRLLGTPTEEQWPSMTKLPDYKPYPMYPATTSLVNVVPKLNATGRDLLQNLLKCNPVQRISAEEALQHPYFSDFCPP
Sequence of Cyclin-dependent kinase 5/CDK5 activator 1 (Homo sapiens) (Q15078 99-307 partner limits assumed): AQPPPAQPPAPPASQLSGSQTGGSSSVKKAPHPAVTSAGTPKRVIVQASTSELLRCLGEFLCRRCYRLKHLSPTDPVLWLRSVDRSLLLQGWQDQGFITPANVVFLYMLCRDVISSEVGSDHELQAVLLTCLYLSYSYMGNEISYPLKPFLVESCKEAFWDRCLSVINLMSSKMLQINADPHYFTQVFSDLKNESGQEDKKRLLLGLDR
Series [10] has as its target Tyrosine-protein kinase Lyn (Homo sapiens) (UniProt P07948). Kind of series: Inhibition of LYNb (unknown origin) at 1 uM preincubated for 10 mins followed by substrate addition measured for 60 to 120 mins by HTRF assay relative to control. Particulars: time 70-130 min.
The nature of series [11]: AUC (0 to infinity) in Sprague-Dawley rat at 2 mg/kg, iv. The series is classed as ADME, organism-based. The arrangement: dose 2 mg/kg, route iv. Conditions: in vivo.
The target in series [12] is T1, Cyclin-dependent kinase 8. The series can be described thus: Binding affinity to flag-tagged CDK8 (unknown origin) transfected in HEK-293T cells upto 4 uM incubated for 12 hrs by biotin pull down based Western blot analysis. The series is classed as cell-based.
Series [13] relates to HL-60. Kind of series: Induction of apoptosis in human HL-60 cells assessed as viable cells at 10 uM incubated for 48 hrs by annexin V-FITC/PI staining based flow cytometry (reference value: 96.5 %). The format is functional. Conditions: read-out: Activity. A general note: Flow cytometry measures light scatter and fluorescence of single cells or particles in a stream.
In series [14] the test system is HL-60. Kind of series: Induction of apoptosis in human HL-60 cells assessed as late apoptotic cells at 5 uM incubated for 48 hrs by annexin V-FITC/PI staining based flow cytometry (reference value: 1.07 %). The series is classed as functional.
Series [15] concerns the target Tyrosine-protein kinase receptor TYRO3 (Homo sapiens) (UniProt Q06418). Kind of series: Inhibition of TYRO3 (unknown origin) at 1 uM preincubated for 10 mins followed by substrate addition measured for 60 to 120 mins by HTRF assay relative to control. Conditions: time 70-130 min.
A short description of series [16]: Acute toxicity in C57BL/6 mouse assessed as histopathological change in kidney at 2000 mg/kg, IG measured for 14 days by H&E staining based analysis. The series is classed as organism-based. Conditions: in vivo, po, 336 h, time 14 day.
Series [17] has as its target Ephrin type-B receptor 1 (Homo sapiens) (UniProt P54762). The series can be described thus: Inhibition of EPHB1 (unknown origin) at 1 uM preincubated for 10 mins followed by substrate addition measured for 60 to 120 mins by HTRF assay relative to control. Particulars: time 70-130 min.

T1 sequence (P49336 whole entry): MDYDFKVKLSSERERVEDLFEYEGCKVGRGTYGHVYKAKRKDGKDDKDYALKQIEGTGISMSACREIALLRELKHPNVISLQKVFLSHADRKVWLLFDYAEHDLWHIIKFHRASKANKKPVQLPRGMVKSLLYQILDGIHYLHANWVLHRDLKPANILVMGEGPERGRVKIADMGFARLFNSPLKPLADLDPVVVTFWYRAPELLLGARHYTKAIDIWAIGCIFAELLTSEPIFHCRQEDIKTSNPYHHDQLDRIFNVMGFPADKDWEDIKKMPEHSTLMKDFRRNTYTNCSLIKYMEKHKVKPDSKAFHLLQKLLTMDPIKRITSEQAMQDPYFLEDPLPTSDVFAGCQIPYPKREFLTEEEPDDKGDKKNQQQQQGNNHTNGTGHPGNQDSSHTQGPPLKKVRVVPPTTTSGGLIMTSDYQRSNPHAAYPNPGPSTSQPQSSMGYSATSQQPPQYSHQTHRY
Sequence of Tyrosine-protein kinase receptor TYRO3 (Homo sapiens) (Q06418 whole entry): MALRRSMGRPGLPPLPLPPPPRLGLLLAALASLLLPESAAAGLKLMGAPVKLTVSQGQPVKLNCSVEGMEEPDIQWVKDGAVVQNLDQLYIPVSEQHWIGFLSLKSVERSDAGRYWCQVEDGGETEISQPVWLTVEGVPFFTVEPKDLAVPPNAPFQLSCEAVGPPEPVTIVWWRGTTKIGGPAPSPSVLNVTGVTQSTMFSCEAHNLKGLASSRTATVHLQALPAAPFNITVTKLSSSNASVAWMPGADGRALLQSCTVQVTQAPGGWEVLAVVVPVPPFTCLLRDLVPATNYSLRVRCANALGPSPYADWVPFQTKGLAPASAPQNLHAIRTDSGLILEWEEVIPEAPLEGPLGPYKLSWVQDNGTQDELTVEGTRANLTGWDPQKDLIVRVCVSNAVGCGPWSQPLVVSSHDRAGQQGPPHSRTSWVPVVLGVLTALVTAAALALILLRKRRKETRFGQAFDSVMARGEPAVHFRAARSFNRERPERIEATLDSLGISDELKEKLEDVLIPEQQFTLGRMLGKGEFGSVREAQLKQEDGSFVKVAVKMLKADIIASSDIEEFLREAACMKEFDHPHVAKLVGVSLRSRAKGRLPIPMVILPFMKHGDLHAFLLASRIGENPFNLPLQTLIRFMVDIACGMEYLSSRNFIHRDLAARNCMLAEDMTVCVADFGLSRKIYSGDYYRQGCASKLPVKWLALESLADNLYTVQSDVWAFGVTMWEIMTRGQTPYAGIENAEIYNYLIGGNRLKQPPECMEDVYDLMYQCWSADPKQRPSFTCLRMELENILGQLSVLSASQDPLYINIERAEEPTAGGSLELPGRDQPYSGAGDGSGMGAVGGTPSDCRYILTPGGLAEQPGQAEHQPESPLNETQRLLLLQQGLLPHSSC
Sequence of Ephrin type-B receptor 1 (Homo sapiens) (P54762 whole entry): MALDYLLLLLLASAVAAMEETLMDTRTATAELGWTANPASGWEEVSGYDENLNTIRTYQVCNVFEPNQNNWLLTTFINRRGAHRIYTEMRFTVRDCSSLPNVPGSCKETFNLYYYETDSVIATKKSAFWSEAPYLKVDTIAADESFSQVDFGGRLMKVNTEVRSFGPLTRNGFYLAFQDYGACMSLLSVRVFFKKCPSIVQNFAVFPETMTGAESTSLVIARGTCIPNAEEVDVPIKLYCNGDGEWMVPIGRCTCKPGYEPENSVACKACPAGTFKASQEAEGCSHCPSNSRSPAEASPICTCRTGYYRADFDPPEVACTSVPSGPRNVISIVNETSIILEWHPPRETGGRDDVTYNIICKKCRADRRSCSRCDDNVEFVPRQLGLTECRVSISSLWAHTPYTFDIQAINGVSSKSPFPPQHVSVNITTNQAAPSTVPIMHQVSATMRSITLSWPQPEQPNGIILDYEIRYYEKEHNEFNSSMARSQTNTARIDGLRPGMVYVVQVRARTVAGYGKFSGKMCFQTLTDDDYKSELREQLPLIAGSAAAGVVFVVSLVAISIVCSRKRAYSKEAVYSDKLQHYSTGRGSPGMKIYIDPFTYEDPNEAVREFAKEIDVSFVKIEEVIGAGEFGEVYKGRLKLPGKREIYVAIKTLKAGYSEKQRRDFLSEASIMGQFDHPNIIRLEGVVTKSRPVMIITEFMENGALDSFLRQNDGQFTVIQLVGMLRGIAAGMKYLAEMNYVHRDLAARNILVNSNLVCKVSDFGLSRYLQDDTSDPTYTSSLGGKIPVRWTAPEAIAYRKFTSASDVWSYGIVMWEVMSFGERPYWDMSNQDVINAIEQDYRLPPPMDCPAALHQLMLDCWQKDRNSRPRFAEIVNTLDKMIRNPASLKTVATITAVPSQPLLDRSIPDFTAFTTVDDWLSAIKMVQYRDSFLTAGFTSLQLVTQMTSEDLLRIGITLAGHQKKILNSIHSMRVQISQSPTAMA
Sequence of Tyrosine-protein kinase Lyn (Homo sapiens) (P07948 2-512 limits assumed): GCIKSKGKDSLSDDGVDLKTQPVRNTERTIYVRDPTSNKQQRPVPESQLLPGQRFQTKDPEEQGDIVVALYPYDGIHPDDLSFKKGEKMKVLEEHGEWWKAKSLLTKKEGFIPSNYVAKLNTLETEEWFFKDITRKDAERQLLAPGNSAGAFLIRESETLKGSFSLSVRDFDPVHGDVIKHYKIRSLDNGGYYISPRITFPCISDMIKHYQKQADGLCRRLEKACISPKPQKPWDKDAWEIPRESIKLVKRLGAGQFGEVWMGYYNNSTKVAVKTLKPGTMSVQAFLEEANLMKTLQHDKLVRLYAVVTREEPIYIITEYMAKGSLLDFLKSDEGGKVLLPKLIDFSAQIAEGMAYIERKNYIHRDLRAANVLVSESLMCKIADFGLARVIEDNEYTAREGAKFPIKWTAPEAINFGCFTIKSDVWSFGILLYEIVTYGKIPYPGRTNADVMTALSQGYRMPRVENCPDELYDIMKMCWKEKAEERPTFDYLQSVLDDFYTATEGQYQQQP

For the compound `NC(=O)c1cccc(-c2cnc3[nH]ccc3c2)c1`, the IC50 (usually the concentration that inhibits the measured activity by half) in series [1] is greater than 1 µM. Besides, in series [2], the T came to 61 °C. Also, the inhibition – broadly, how much of the control response was suppressed – amounted to 0% in series [3]; 24.8% in series [5]; 16.2% in series [6]; 21.6% in [8]; 15.8% in series [9]; 13.1% in series [10]. In addition, the inhibition in series [15] worked out at 7%; in series [17], 0%. The outcome in series [4] and in series [12] was Active. Moreover, the Activity result was “Non-Toxic” in series [7], 1.45% with HL-60 [14] and “Non-Toxic” in [16]. In addition, the AUC(0-inf) – broadly, the area under the concentration-time curve extrapolated to infinity – in series [11] was found to be 310 ng·h/mL. Moreover, in the series on HL-60 [13], the viability at 10 µM was found to be 37.8%.
